# Reference: patent US9907759B2, “Sildenafil-free base-containing film preparation and method for producing same” (CTC Bio, Inc., priority 2011, dated 2018)
# Counter-ions that a name gives are not always drawn.
# Tests used:
# Assay type in all cases: physicochemical
# Solubility in water = experiment: Solubility in water
# [1] = Visual characteristics of the film prepared (particles, transparency)
# Protocol: (§1) A preparative experimentation was conducted to analyze the particle size of a sildenafil free base and the characteristics thereof in several film preparations depending on the rpm conditions (3,000 or 5,000 rpm) of a homogenizer (AGI homomixer) and homogenization times (0, 10 and 30 minutes), the film preparations having the same compositions as the Examples shown in Table 6.
# (§2) In order to prepare films containing sildenafil free base particles having a smaller size, the film preparation having the same compositions as the Example 8 shown in Table 6 were subject to homogenization using a homogenizer (IKA) at 10,000 rpm for 1 hour.
# [2] = Particle size of sildenafil free base, Mastersizer 2000 (Malvern), wet method
# Protocol: as §1
# First, the raw materials of a sildenafil free base before homogenization were measured for their particle size using Mastersizer 2000 (Malvern) by a wet method, and the results thereof are shown in Table 1. The same procedure was repeated three times.
# The particle size changes of a sildenafil free base depending on homogenization times were measured under the condition of a larger scale than the previous experimentation. The homogenization was carried out using a homogenizer (IKA) at 5,000 rpm with increasing homogenization time. The sildenafil free base-containing film preparations used in the homogenization had the same compositions as the Examples shown in Table 6.
# as §2
# [3] = after homogenization 3000 rpm, 30 minutes
# [4] = after homogenization 5000 rpm, 10 minutes
# [5] = sildenafil free base raw material before homogenization (Initial)
Compound,Solubility in water (Solubility in water),"Characteristics ([1]; 3000 rpm, 30 minutes)","Characteristics ([1]; 5000 rpm, 10 minutes)","Particle size D10 [2, 3]","Particle size D90 [2, 3]","Particle size D10 [2, 4]","Particle size D90 [2, 4]","D10 [2, 5]","D90 [2, 5]"
CCCc1nn(C)c2c(=O)[nH]c(-c3cc(S(=O)(=O)N4CCN(C)CC4)ccc3OCC)nc12 [sildenafil citrate],can dissolve in water,–,–,–,–,–,–,–,–
CCCc1nn(C)c2c(=O)[nH]c(-c3cc(S(=O)(=O)N4CCN(C)CC4)ccc3OCC)nc12 [sildenafil free base],practically insoluble in water,Particles were visually observed,Particles were scarcely observed,8.91 μm,109.66 μm,8.59 μm,85.99 μm,13.48 μm,281.74 μm
